According to article PMC3131558, “Plitidepsin Has a Safe Cardiac Profile: A Comprehensive Analysis” (Marine Drugs, 2011):

System: adult patients with advanced solid tumors or hematological malignancies
Assay: Paired ECGs (QTc, heart rate) before and after plitidepsin infusion
Type: in vivo, human
Conditions: for QTc Pre-infusion / HR Post-Infusion / QTc Post-infusion / HR Pre-Infusion: mean (SD)
Experimental: Selected ECG variables (Bazett’s corrected QT interval (QTc) and heart rate (HR)) were analyzed in patients with paired ECG data (i.e., available before and after plitidepsin infusion, n = 136).
Pharmacokinetic (PK) data available from individual clinical trials (four phase I studies and nine phase II studies; see details in Table 1) and/or simulated data using population PK analyses were correlated with the occurrence of CAEs. In the individual studies, doses ranged from 0.13 to 8.00 mg/m^2, and were administered as 1 h or 24 h infusion weekly, 3 h or 24 h infusion bi-weekly, or 1 h infusion for 5 consecutive days every 3 weeks. To evaluate the potential relationship between blood plitidepsin concentrations and QTc and HR values, a total of 90 patients who had ECGs performed during treatment with plitidepsin and PK data during first infusion were analyzed. The plitidepsin concentration at the time when the ECG had been obtained was calculated using the whole blood plitidepsin concentration at the ECG times in which they were simulated taking the individual Bayesian PK parameters of the final population PK model and considering the real treatment history of each patient. In total, 411 patients and 5585 plitidepsin concentration measurements (including 2900 blood and 2685 plasma concentrations) were pooled in the population PK analysis. An open, 3-compartment disposition model with linear elimination and linear distribution from the central compartment to peripheral compartments was used to describe the PK of plitidepsin in plasma. Between and within subject variabilities were assumed to be log-normally distributed. PK exposure parameters (maximum concentration in plasma (Cmax) and area under the curve (AUC) from day 0 to day 28) and other dose-independent PK parameters (clearance, half-life, etc.) were used to evaluate the relationship between patient PK characteristics and the appearance of CAEs. For the statistical analysis of the relationship between the exposure parameters and the development or not of a CAE, a logistic regression model was used to analyze the incidence of the event.

[1] = All (n = 136 pairs), ECG within 4 h after end of infusion
[2] = Myocardial injury (n = 4 pairs)
[3] = No cardiac event (n = 116 pairs)
[4] = Rhythm abnormalities (n = 18 pairs)

plitidepsin
QTc Pre-infusion (All (n = 136 pairs), Bazett's corrected): 426.77 (38.78) msec | HR Post-Infusion [1]: 82.46 (13.17) bpm | QTc Post-infusion [1]: 429.28 (40.25) msec | HR Pre-Infusion (All (n = 136 pairs)): 79.07 (15.33) bpm | HR Post-Infusion (Cardiac event (n = 20 pairs)): 80.10 (10.87) bpm | HR Pre-Infusion (Cardiac event (n = 20 pairs)): 74.05 (13.39) bpm | QTc Post-infusion (Cardiac event (n = 20 pairs)): 442.60 (32.09) msec | QTc Pre-infusion (Cardiac event (n = 20 pairs)): 437.75 (28.65) msec | HR Post-Infusion [2]: 77.75 (12.55) bpm | HR Pre-Infusion [2]: 68.75 (10.34) bpm | QTc Post-infusion [2]: 437.50 (15.20) msec | QTc Pre-infusion [2]: 429.00 (29.15) msec | HR Post-Infusion [3]: 82.86 (13.53) bpm | HR Pre-Infusion [3]: 79.92 (15.53) bpm | QTc Post-infusion [3]: 426.98 (41.18) msec | QTc Pre-infusion [3]: 424.88 (40.06) msec | HR Post-Infusion [4]: 80.44 (11.30) bpm | HR Pre-Infusion [4]: 75.44 (13.39) bpm | QTc Post-infusion [4]: 442.67 (33.79) msec | QTc Pre-infusion [4]: 439.44 (29.79) msec | Relationship between whole blood plitidepsin concentrations and QTc interval (all ECGs during treatment (263 ECGs), simulated concentrations): No apparent relationship
